# Source: patent US20100120700A1, “METHODS AND COMPOSITIONS FOR TREATING CERVICAL CANCER” (priority 2000, published 2010)
# Columns and labels:
# [1] = biological target: T1, AF6 domain 1 (Homo sapiens, UniProt P55196); assay: G assay PDZ-PL binding; settings: peptide 10 uM, protein 5
# T1 construct: made in house; host or cells: E. coli (DH5alpha or BL-21)
# [2] = tested on: SAST1 KIAA; settings: E6 peptide titrated against constant GST-PDZ
# Procedure: (§1) (1) A GST/PDZ fusion protein, as well as GST alone as a negative control, are bound to a surface (e.g., a 96-well plate) and the surface blocked and washed as described supra for the “G” assay.
# (§2) (2) 50 uL per well of a solution of biotinylated PL peptide (e.g. as shown in TABLE 2) is added to the surface in increasing concentrations in PBS/BSA (e.g. at 0.1 uM, 0.33 uM, 1 uM, 3.3 uM, 10 uM, 33 uM, and 100 uM). In one embodiment, the PL peptide is allowed to react with the bound GST/PDZ fusion protein (as well as the GST alone negative control) for 10 minutes at 4° C. followed by 20 minutes at 25° C. The plate is washed 3 times with ice cold PBS to remove unbound labeled peptide.
# (§3) (3) The binding of the PL peptide to the immobilized PDZ-domain polypeptide is detected as described supra for the “G” assay.
# (§4) (4) For each concentration of peptide, the net binding signal is determined by subtracting the binding of the peptide to GST alone from the binding of the peptide to the GST/PDZ fusion protein. The net binding signal is then plotted as a function of ligand concentration and the plot is fit (e.g. by using the Kaleidagraph software package curve fitting algorithm; Synergy Software) to the following equation, where “Signal[ligand]” is the net binding signal at PL peptide concentration “[ligand],” “Kd” is the apparent affinity of the binding event, and “Saturation Binding” is a constant determined by the curve fitting algorithm to optimize the fit to the experimental data: […]
# [3] = tested on: VARTUL; settings: E6 peptide titrated against constant GST-PDZ
# Procedure: as §1, §2, §3, §4
# [4] = biological target: Magi1C (PDZ2) (Homo sapiens, UniProt Q96QZ7); settings: E6 peptide titrated against constant GST-PDZ; Table 10 prints Magi1C (1)
# Magi1C (PDZ2), sequence (Q96QZ7 463-566): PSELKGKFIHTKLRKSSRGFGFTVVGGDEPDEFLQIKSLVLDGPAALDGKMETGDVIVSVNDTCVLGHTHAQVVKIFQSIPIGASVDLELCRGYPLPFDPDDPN
# Procedure: as §1, §2, §3, §4
# [5] = biological target: DLG3 (PDZ1-2) (Homo sapiens, UniProt Q92796); settings: E6 peptide titrated against constant GST-PDZ; DLG3 (1-2)
# DLG3 (PDZ1-2), sequence (Q92796 129-315 limits assumed): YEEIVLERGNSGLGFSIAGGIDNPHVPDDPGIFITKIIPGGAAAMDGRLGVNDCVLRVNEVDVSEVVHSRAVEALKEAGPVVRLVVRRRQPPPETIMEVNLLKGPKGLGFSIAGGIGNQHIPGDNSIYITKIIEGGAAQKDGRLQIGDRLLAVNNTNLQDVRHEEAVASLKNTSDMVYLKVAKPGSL
# Procedure: as §1, §2, §3, §4
# T1 sequence (P55196 1001-1093): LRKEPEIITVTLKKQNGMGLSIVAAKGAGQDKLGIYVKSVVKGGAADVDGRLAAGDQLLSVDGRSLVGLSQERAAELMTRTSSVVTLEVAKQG
substance,measurement,setting,value
"20 mer peptide corresponding to the C-terminus of HPV16 E6 (PDZ ligand), biotinylated in binding assays; ends SSRTRRETQL (SEQ ID NO: 13) [HPV E6 #16]",Ave OD,[1]; A450 nm,0.444
same,OD S/N,[1]; vs GST only well,1.80
same,EC50,[2],0.58 µM
same,EC50,[3],0.94 µM
same,EC50,[4],0.056 µM
same,EC50,[5],3.8 µM
